Test results from patent US20050202078A1, “Vesicle-encapsulated corticosteroids for the treatment of cancer” (priority 2002, published 2005).

Columns and labels:
[1] = test system: C26 murine colon carcinoma; assay: Tumor growth inhibition, effect of dose, C26 model; assay type: in vivo, Balb/c mice; settings: 20 mg/kg or 50 mg/kg, single injection; one week later
Description: (§1) FIG. 2: Effect of dose of free or liposomal PLP on tumor growth in B16- or C26-bearing mice. Mice received a single injection with the indicated dose and formulation of PLP on the day tumors became palpable. Tumor volume one week later is reported. Mean±S.D. N=5 mice/experimental group;
(§2) B16 murine melanoma and C26 murine colon carcinoma cells were cultured at 37° C. in a 5% CO2-containing humidified atmosphere in DMEM medium (Gibco, Breda, The Netherlands) containing 10% (v/v) fetal calf serum supplemented with 2 mM L-glutamine, 100 IU/ml penicillin, 100 μg/ml streptomycin and 0.25 μg/ml amphotericin B (Gibco).
(§3) Tissue distribution of ^111In-labeled PEG liposomes in tumor-bearing mice. 1×10^5 B 16 or C26 cells were inoculated subcutaneously in the flank of C57B1/6 of Balb/c mice, respectively. […] At 6 hours and 24 hours after injection, animals were sacrificed, a blood sample was taken, and tumor, lung, liver, spleen and kidneys were dissected, weighed and radioactivity was counted. […]
(§4) Mice received a single intravenous injection of an indicated dose of free PLP or liposomal PLP at the time when the tumor became palpable. At seven days after treatment, tumor size was measured and tumor volume calculated according to the equation V=0.52×a^2×b, wherein a is the smallest and b is the largest superficial diameter.

B16 murine melanoma [2] = assay: Tumor growth inhibition, effect of tumor size (time of injection), B16 model; assay type: in vivo, C57B1/6 mice
Description: (§5) FIG. 3: Effect of tumor size on anti-tumor effects of free or liposomal PLP in B16- or C26-bearing mice. Mice received either single or multiple injections with 20 mg/kg PLP of the indicated formulations. Arrows indicate treatment. Mean±S.D. is reported. N=5 mice/experimental group; and
as §2
(§6) As a reference, B16F10 tumors became palpable around seven days and C26 tumors around eleven days after tumor cell inoculation. Tumor size was measured regularly and tumor volume was calculated as described above.
(§7) To determine the effect of time of injection of free or liposomal PLP on tumor growth inhibition, the formulations were injected at a dose of 20 mg/kg at day 1, 7 and 14 or single injection at day 7 or day 14. See, in this light, FIG. 3 showing the results.

[3] = test system: C26 murine colon carcinoma; assay: Tumor growth inhibition, effect of tumor size (time of injection), C26 model; assay type: in vivo, Balb/c mice
Description: as §5, §2, §6, §7

B16 murine melanoma [4] = assay: Tumor growth inhibition, effect of dose, B16 model; assay type: in vivo, C57B1/6 mice; settings: 20 mg/kg or 50 mg/kg, single injection; one week later
Description: as §1, §2, §3, §4

[5] = single injection 20 mg/kg at day 7

In the case of “prednisolone disodium phosphate [free PLP]”, the “tumor volume compared to buffer-treated control animals” value [1] is reported as “did not result in significantly different tumor volumes”, the “tumor growth inhibition between day 1 and day 7” value (B16 murine melanoma [2]; 20 mg/kg i.v. at day 1) is reported as “Neither liposomal PLP nor free PLP inhibited tumor growth” and the “tumor growth inhibition as compared to controls, between day 7 and day 14” value (B16 murine melanoma [2]; 20 mg/kg i.v. at day 1 and second injection at day 7, p<0.05) is reported as “did not reduce tumor volume”. For the same substance, the “significantly smaller tumor volume after single injection” value (B16 murine melanoma [2]; [5]) was “only seen after treatment with liposomal PLP”, the “tumor growth inhibition between day 1 and day 7” value ([3]; 20 mg/kg i.v. at day 1) was “Neither liposomal PLP nor free PLP inhibited tumor growth” and the “tumor growth inhibition, multiple injections” value ([3]; 20 mg/kg i.v. at day 1, 7 and 14) was “did not inhibit tumor growth”. The “significance of tumor volume compared to controls” value [3, 5] was “not significantly smaller with either treatment” and the “tumor volume compared to buffer-treated control animals” value (B16 murine melanoma [4]) was “did not result in significantly different tumor volumes”.
